Like-named read-outs stand apart in the source and are kept apart here. Where a SMILES comes first, the peptide text is derived from it. Bridges are numbered along the chain shown (N, C = ends).
What was measured:
[1] = system: human colon cancer Ls174T cell line implanted in NIH athymic mice; test: Ls174T colon cancer tumor model in athymic mice; format: in vivo; conditions: FIG. 19B
Protocol: The Ls174T colon cancer tumor model in athymic mice was used to evaluate the potential effect of the linear Gly255-Ser274 segment (peptide N06P87), compared to the CIGB370r polypeptide, on human tumor models. Human tumor cells were administered by subcutaneous route, and the molecules of interest or the vehicle were administered by intratumor route (100 μL). After 13 days, when tumors were implanted and palpable, administration schedules started for the molecules of interest (FIG. 8A). The peptide N06P87 was administered in down-scaled doses: two administrations of 600 μM each every 48 h, followed by 4 administrations of 330 μM each every 48 h, and lastly 4 administrations of 90 μM each every 72 h. The CIGB370r peptide was administered weekly for 4 weeks.
The effects of the linear segment Gly255-Ser274 (peptide N06P87) and two other model cyclic peptides of the present invention were compared to the effect of the CIGB370r polypeptide in the Ls174T human colon cancer model in athymic NIH mice, with the dose and schedule shown in FIG. 19. After 13 days, once the tumors were implanted and palpable, biomolecules began to be administered (FIG. 19 A). The peptides were administered in down-scaled doses: 2 administrations of 600 μM every 48 h, followed by 4 administrations of 330 μM each every 48 h, and 4 final 90 μM administrations every 72 h. […]

[2] = system: TC-1 tumor; test: TC-1 subcutaneous tumor model in C57BL/6 mice; format: in vivo; conditions: 80 μM; for survival: intratumoral route
Protocol: Six-to-eight weeks-old, C57BL/6 female mice of 22 g of weight were supplied by the National Center for Laboratory Animal Production (CENPALAB, Havana, Cuba) and housed under pathogen-free conditions at the Bioterium of the Center for Genetic Engineering and Biotechnology (CIGB). Experiments were carried out in agreement with regulations for proper handling and care of laboratory animals. Tumor volume was measured on each case (estimated by the formula: volume=a^2×(b/2), where a is the width and b is the length of the tumor) and animal survival was evaluated.
Survival was compared between groups by the Logrank test. The statistic parameters were obtained with the aid of the GraphPad Prism 4.0 software (GraphPad Software, San Diego, Calif., USA).
C57BL/6 mice were injected in the right flank by subcutaneous route (s.c.) with 50 000 TC-1 cells. When tumors were detectable, mice were randomized into treatment groups to evaluate the treatment with the peptides subject of study, to evaluate them by different administration routes. Tumor-bearing animals received 6 administrations in alternate days, with 80 μM of the subject peptide, solely received the vehicle as control. Five mice were used for each group. Animals were housed under pathogen-free conditions, and procedures were conducted in agreement with good practices for laboratory animal handling and care.

[3] = system: human tumor cell lines (A549, A375, PC-3, U87)
[4] = system: primary fibroblasts
[5] = system: human tumor cells; test: Cytotoxic activity screening of peptide library on human tumor cell lines, SRB method; format: cell-based
[6] = system: Colo 205 (colon adenocarcinoma); test: SRB cytotoxicity on Colo 205 cells; format: cell-based, human
Protocol: (§1) Negative control cells were cultured on a volume of vehicle equal to that of the experimental samples. An “x-y” curve (dose-response) was established with the percent of surviving cells, compared in respect to the negative control cells, and the following parameters were estimated: 50% growth inhibition (GI50); Total growth inhibition (TGI); and the lethal concentration 50 (LC50), that is the concentration causing the 50% of cell death (Boyd M R, Paull K D, and Rubinstein L R (1992) “Data display and analysis strategies for the NCI Disease Oriented In-Vitro Antitumor Drug Screen, in Cytotoxic Anticancer Drugs: Models and Concept for Drug Discovery and Development” (Baleriote F A, Corbett T H and Baker L H eds) pp 11-34, Kluwer Academia Publishers, Boston).
(§2) Were considered as cytotoxic peptides all those peptides being able of inhibiting 50% of the cellular proliferation, in a dose-dependent manner, and showing GI50 values below 100 μM, at least in one of the cell lines studied. The human tumor cell lines used were: HEp-2 (larynx carcinoma), A549 (lung epithelial adenocarcinoma), M14 (melanoma), Colo 205 (colon adenocarcinoma), Ls174T (colon adenocarcinoma), LnCAP (prostate carcinoma), PC-3 (prostate carcinoma) and H 125 (non-small cell lung adenocarcinoma). […]

[7] = system: HEp-2 (larynx carcinoma); test: SRB cytotoxicity on HEp-2 cells; format: cell-based, human
Protocol: as §1, §2

[8] = system: A549 (lung epithelial adenocarcinoma); test: SRB cytotoxicity on A549 cells; format: cell-based, human
Protocol: as §1, §2

[9] = system: Ls174T (colon adenocarcinoma); test: SRB cytotoxicity on Ls174T cells; format: cell-based, human
Protocol: as §1, §2

[10] = peptide combined with prodigiosin

For `CC(C)C[C@@H]1NC(=O)[C@H](Cc2ccccc2)NC(=O)[C@H](CC(=O)O)NC(=O)[C@H](CCCNC(=N)N)NC(=O)CNC(=O)[C@H]([C@@H](C)O)NC(=O)[C@H](CC(N)=O)NC(=O)[C@@H](N)CSSC[C@@H](C(N)=O)NC1=O` [Peptide A08P25s-s, CNTGRDFLC] (H-CNTGRDFLC-NH2; disulfide 1-9), the “T/C values related to the mean tumor volume” value [1] was 35%, the survival [2] was “intermediate survival block” and the “effect on the cytotoxic activity of prodigiosin” value [3] was “enhanced”. The GI50 values [3, 10] was “nm range” and the “decrease of the cytotoxic activity of prodigiosin on primary fibroblasts” value [4] was “at least one order of magnitude”.
In the case of `CC(C)C[C@@H]1NC(=O)[C@H](Cc2ccccc2)NC(=O)[C@H](CC(=O)O)NC(=O)[C@H](CCCNC(=N)N)NC(=O)CNC(=O)[C@H]([C@@H](C)O)NC(=O)[C@H](CC(N)=O)NC(=O)[C@H](CO)NC(=O)[C@H](CC(N)=O)NC(=O)[C@@H](NC(=O)CNC(=O)[C@H](Cc2ccc(O)cc2)NC(=O)[C@@H](NC(=O)[C@@H](NC(=O)[C@H](CC(=O)O)NC(=O)CN)[C@@H](C)O)C(C)C)CSSC[C@@H](C(N)=O)NC(=O)CNC(=O)[C@H]([C@@H](C)O)NC(=O)[C@H](CO)NC1=O` [Peptide J08P48s-s] (H-GDTVYGCNSNTGRDFLSTGC-NH2; disulfide 7-20), the “T/C values related to the mean tumor volume” value [1] is reported as 35%, the “survival by intratumoral and intraperitoneal routes” value ([2]; i.t. or i.p., FIG. 17) is reported as “reproduce the effects observed in this model for the CIGB370r polypeptide” and the survival [2] is reported as “highest survival block”. The GI50 values [3, 10] was “nm range”, the “effect on the cytotoxic activity of prodigiosin” value [3, 10] was “enhanced” and the “decrease of the cytotoxic activity of prodigiosin on primary fibroblasts” value [4, 10] was “at least one order of magnitude”.
In the case of `CC(C)C[C@H](NC(=O)[C@H](Cc1ccccc1)NC(=O)[C@H](CC(=O)O)NC(=O)[C@H](CCCNC(=N)N)NC(=O)CNC(=O)[C@@H](NC(=O)[C@H](CC(N)=O)NC(=O)[C@H](CO)NC(=O)[C@H](CC(N)=O)NC(=O)[C@H](Cc1ccccc1)NC(=O)CNC(=O)[C@H](Cc1ccc(O)cc1)NC(=O)[C@@H](NC(=O)[C@@H](NC(=O)[C@H](CC(=O)O)NC(=O)CN)[C@@H](C)O)C(C)C)[C@@H](C)O)C(=O)N[C@@H](CO)C(=O)N[C@H](C(=O)N[C@H](C(=O)N[C@@H](CO)C(N)=O)[C@@H](C)O)[C@@H](C)O` [Peptide N06P87] (H-GDTVYGFNSNTGRDFLSTTS-NH2), the “cytotoxic / biological activity in vitro on tumor cells” value ([5]; peptide library screening) is reported as “active”, the “change of cytotoxic activity by parenteral formulation buffers, pH and additives” value ([5]; tumor cells from diverse histological origins) is reported as “no increased on its cytotoxic activity” and the GI50 [6] is reported as less than 100 µM. For the same compound, the GI50 [7] was less than 100 µM, the GI50 [8] was less than 100 µM and the GI50 [9] was less than 100 µM.
